Test results taken from the NIST ThermoML archive (doi:10.1021/je200811n).

Settings: Hot wire method

F/C=C/C(F)(F)F [trans-1,3,3,3-tetrafluoropropene]
Settings | thermal conductivity [W/m/K]
322.82 K, 587 kPa, Gas | 0.01562
322.86 K, 21602 kPa, Liquid | 0.08015
322.89 K, 858 kPa, Gas | 0.01585
322.9 K, 15321 kPa, Liquid | 0.07653
322.91 K, 884 kPa, Gas | 0.01588
322.91 K, 5442 kPa, Liquid | 0.06937
322.93 K, 431 kPa, Gas | 0.01557
322.94 K, 5376 kPa, Liquid | 0.06973
322.99 K, 96 kPa, Gas | 0.01599
323 K, 710 kPa, Gas | 0.01574
323.07 K, 301 kPa, Gas | 0.01559
323.18 K, 586 kPa, Gas | 0.01563
323.19 K, 193 kPa, Gas | 0.01574
323.23 K, 856 kPa, Gas | 0.01588
323.26 K, 882 kPa, Gas | 0.01587
323.3 K, 430 kPa, Gas | 0.01563
323.36 K, 707 kPa, Gas | 0.01574
323.41 K, 96 kPa, Gas | 0.0162
323.46 K, 301 kPa, Gas | 0.01566
323.55 K, 585 kPa, Gas | 0.01566
323.61 K, 193 kPa, Gas | 0.01581
323.71 K, 429 kPa, Gas | 0.01566
323.86 K, 96 kPa, Gas | 0.01599
323.88 K, 301 kPa, Gas | 0.01569
324.05 K, 193 kPa, Gas | 0.01583
324.33 K, 96 kPa, Gas | 0.01609
331.18 K, 96 kPa, Gas | 0.01637
331.19 K, 198 kPa, Gas | 0.01658
331.21 K, 298 kPa, Gas | 0.01665
331.4 K, 96 kPa, Gas | 0.0162
331.42 K, 198 kPa, Gas | 0.01638
331.43 K, 298 kPa, Gas | 0.01653
331.64 K, 96 kPa, Gas | 0.01611
331.65 K, 197 kPa, Gas | 0.01629
331.67 K, 298 kPa, Gas | 0.0164
331.9 K, 96 kPa, Gas | 0.01602
331.9 K, 298 kPa, Gas | 0.01635
331.91 K, 197 kPa, Gas | 0.01618
332.16 K, 298 kPa, Gas | 0.01629
332.17 K, 198 kPa, Gas | 0.01612
332.17 K, 1166 kPa, Gas | 0.01695
332.18 K, 1084 kPa, Gas | 0.01688
332.3 K, 442 kPa, Gas | 0.01671
332.33 K, 813 kPa, Gas | 0.0168
332.38 K, 585 kPa, Gas | 0.01673
332.42 K, 298 kPa, Gas | 0.01634
332.43 K, 600 kPa, Gas | 0.0167
332.46 K, 434 kPa, Gas | 0.01674
332.46 K, 1166 kPa, Gas | 0.01705
332.47 K, 1082 kPa, Gas | 0.01688
332.52 K, 198 kPa, Gas | 0.0166
332.63 K, 813 kPa, Gas | 0.01684
332.65 K, 442 kPa, Gas | 0.01674
332.7 K, 96 kPa, Gas | 0.01695
332.71 K, 584 kPa, Gas | 0.0167
332.75 K, 598 kPa, Gas | 0.01664
332.76 K, 1166 kPa, Gas | 0.01708
332.79 K, 1079 kPa, Gas | 0.01686
332.8 K, 434 kPa, Gas | 0.01674
332.9 K, 198 kPa, Gas | 0.01664
332.91 K, 871 kPa, Gas | 0.01664
332.97 K, 813 kPa, Gas | 0.01681
333.01 K, 444 kPa, Gas | 0.01648
333.08 K, 1166 kPa, Gas | 0.01705
333.11 K, 1077 kPa, Gas | 0.0169
333.13 K, 96 kPa, Gas | 0.017
333.26 K, 868 kPa, Gas | 0.01661
333.31 K, 198 kPa, Gas | 0.01672
333.42 K, 1165 kPa, Gas | 0.01702
333.46 K, 1075 kPa, Gas | 0.01692
333.56 K, 96 kPa, Gas | 0.01706
333.6 K, 298 kPa, Gas | 0.01659
333.74 K, 197 kPa, Gas | 0.01673
333.82 K, 441 kPa, Gas | 0.01653
333.98 K, 435 kPa, Gas | 0.01662
334.02 K, 96 kPa, Gas | 0.01704
334.02 K, 298 kPa, Gas | 0.01661
334.19 K, 197 kPa, Gas | 0.01672
334.51 K, 96 kPa, Gas | 0.01712
340.58 K, 3036 kPa, Liquid | 0.06257
340.6 K, 1565 kPa, Liquid | 0.06077
340.63 K, 3034 kPa, Liquid | 0.06242
340.65 K, 1563 kPa, Liquid | 0.06068
340.7 K, 96 kPa, Gas | 0.01742
340.73 K, 194 kPa, Gas | 0.01765
340.73 K, 5177 kPa, Liquid | 0.06477
340.75 K, 8139 kPa, Liquid | 0.06735
340.75 K, 8199 kPa, Liquid | 0.06725
340.78 K, 5176 kPa, Liquid | 0.06447
340.8 K, 8202 kPa, Liquid | 0.06713
340.82 K, 3032 kPa, Liquid | 0.06247
340.86 K, 1561 kPa, Liquid | 0.06064
340.88 K, 3031 kPa, Liquid | 0.06222
340.92 K, 97 kPa, Gas | 0.01718
340.92 K, 1560 kPa, Liquid | 0.06043
340.94 K, 194 kPa, Gas | 0.0174
341.03 K, 8138 kPa, Liquid | 0.06739
341.04 K, 20095 kPa, Liquid | 0.07528
341.06 K, 16393 kPa, Liquid | 0.07294
341.07 K, 5175 kPa, Liquid | 0.06447
341.08 K, 8204 kPa, Liquid | 0.06709
341.09 K, 3029 kPa, Liquid | 0.06217
341.09 K, 21968 kPa, Liquid | 0.07668
341.1 K, 8133 kPa, Liquid | 0.06713
341.1 K, 12136 kPa, Liquid | 0.07037
341.1 K, 20086 kPa, Liquid | 0.07523
341.12 K, 16392 kPa, Liquid | 0.07302
341.13 K, 1563 kPa, Liquid | 0.06043
341.14 K, 96 kPa, Gas | 0.01698
341.15 K, 5174 kPa, Liquid | 0.06431
341.15 K, 21974 kPa, Liquid | 0.07662
341.16 K, 194 kPa, Gas | 0.01722

Liquid
Settings | thermal conductivity [W/m/K]
323.15 K | 0.06606
333.15 K | 0.06293
